Measured values from patent US11472778B2, “Hepatitis C virus NS3/4A protease inhibitors” (priority 2017, dated 2022).
Where two headings read alike, the source gives them in different places.

Key:
[1] = biological target: GT1a D168A NS3/4A protease; type: biochemical, Hepatitis C virus; conditions: Table 3; Ki D168A relative to GT1a WT
Protocol: (§1) For each assay, 2 nM of NS3/4A protease (GT1, D168A and GT3) was pre-incubated at room temperature for 1 h with increasing concentration of inhibitors in assay buffer [50 mM Tris, 5% glycerol, 10 mM DTT, 0.6 mM LDAO, and 4% dimethyl sulfoxide]. Inhibition assays were performed in nonbinding surface 96-well black half-area plates (Corning) in a reaction volume of 60 μt. […] Three independent data sets were collected for each inhibitor with each protease construct.
(§2) For each assay, 2 nM of NS3/4A protease (GT1a and D168A) was pre-incubated at room temperature for 1 h with increasing concentration of inhibitors in assay buffer (50 mM Tris, 5% glycerol, 10 mM DTT, 0.6 mM LDAO, and 4% dimethyl sulfoxide, pH 7.5). Inhibition assays were performed in non-binding surface 96-well black half-area plates (Corning) in a reaction volume of 60 μL. […] Three independent data sets were collected for each inhibitor with each protease construct.
(§3) For each assay, 2 nM of NS3/4A protease (GT1a, R155K and D168A) was pre-incubated at room temperature for 1 h with increasing concentration of inhibitors in assay buffer (50 mM Tris, 5% glycerol, 10 mM DTT, 0.6 mM LDAO, and 4% dimethyl sulfoxide, pH 7.5). Inhibition assays were performed in non-binding surface 96-well black half-area plates (Corning) in a reaction volume of 60 μL. […] Three independent data sets were collected for each inhibitor with each protease construct. […] Gibbs free energy of binding was calculated using the following equation: ΔG=RTlnKi

[2] = biological target: T1, GT1a D168A NS3/4A protease (UniProt P27958, C1185S/D1194A, species not given); type: biochemical, Hepatitis C virus; conditions: read-out: Ki (nM) GT1a D168A NS3/4A Protease
T1 construct: Ki (nM) GT1a D168A NS3/4A Protease
Protocol: as §1, §2, §3

[3] = biological target: T2, wild-type GT1a NS3/4A protease (UniProt P27958, C1185S, species not given); type: biochemical, Hepatitis C virus; conditions: read-out: Ki (nM) GT1a WT NS3/4A Protease
T2 construct: Ki (nM) GT1a WT NS3/4A Protease
Protocol: as §1, §2, §3

[4] = test system: HCV replicon D168A variant in Huh7 cells; assay: microbe, parasite or virus in culture; type: cell-based, Hepatitis C virus; conditions: for EC50: Hepatitis C virus; for Replicon EC50 (Fold change) D168A: Table 4, relative to WT replicon
Protocol: (§4) Mutations (R155K, A516T, D168A and D168V) were constructed by site-directed mutagenesis using a Con1 (genotype 1b) luciferase reporter replicon containing the H77 (genotype 1a) NS3 sequence.
(§5) Replicon RNA of each protease variant was introduced into Huh7 cells by electroporation. Replication was then assessed in the presence of increasing concentrations of protease inhibitors by measuring luciferase activity (relative light units) 96 h after electroporation.
(§6) Mutations (R155K, D168A and A156T) were constructed by site-directed mutagenesis using a Con1 (genotype 1b) luciferase reporter replicon containing the H77 (genotype 1a) NS3 sequence.^6 Replicon RNA of each protease variant was introduced into Huh7 cells by electroporation. Replication was then assessed in the presence of increasing concentrations of protease inhibitors by measuring luciferase activity (relative light units) 96 h after electroporation.

[5] = test system: HCV replicon R155K variant in Huh7 cells; assay: microbe, parasite or virus in culture; type: cell-based, Hepatitis C virus; conditions: for EC50: Hepatitis C virus; for Replicon EC50 (Fold change) R155K: Table 4, relative to WT replicon
Protocol: as §4, §5, §6

[6] = test system: HCV replicon A156T variant in Huh7 cells; assay: microbe, parasite or virus in culture; type: cell-based, Hepatitis C virus; conditions: for EC50: Hepatitis C virus; for Replicon EC50 (Fold change) A156T: Table 4, relative to WT replicon
Protocol: as §4, §5, §6

[7] = test system: wild-type HCV replicon in Huh7 cells; assay: Cell-based drug susceptibility (replicon) assay, wild-type; conditions: Hepatitis C virus, read-out: Replicon EC50 (nM) WT
Protocol: as §4, §5, §6

GT3a NS3/4A protease = biological target: T3, GT3a NS3/4A protease (Hepatitis C virus genotype 3a, UniProt Q81495); assay: biochemical; conditions: for Ki (Fold change) GT3a NS3/4A Protease: Table 3, Ki GT3a relative to GT1a WT
T3 construct: drug-resistant variant D168A, and GT3a NS3/4A protease; made in house; host or cells: Escherichia coli BL21(DE3)
Protocol: as §1

[8] = test system: HCV replicon D168V variant in Huh7 cells; assay: microbe, parasite or virus in culture; type: cell-based, Hepatitis C virus; conditions: for EC50: Hepatitis C virus; for Replicon EC50 (Fold change) D168V: Table 4, relative to WT replicon
Protocol: as §4
Replicon RNA of each protease variant was introduced into Huh7 cells by electroporation. Replication was then assessed in the presence of increasing concentrations of protease inhibitors by measuring luciferase activity (relative light units) 96 h after electroporation. […]

[9] = Huh-7, 96 h, read-out: Replicon EC50 (nM) D168A, Table 2, Huh7 cells, luciferase 96 h
[10] = Huh-7, read-out: Replicon EC50 (nM) D168A, Table 4
[11] = Huh-7, 96 h, read-out: Replicon EC50 (nM) R155K, Table 2, Huh7 cells, luciferase 96 h
[12] = Huh-7, read-out: Replicon EC50 (nM) R155K, Table 4
[13] = Huh-7, 96 h, read-out: Replicon EC50 (nM) A156T, Table 2, Huh7 cells, luciferase 96 h
[14] = Huh-7, read-out: Replicon EC50 (nM) A156T, Table 4
[15] = Huh-7, 96 h, Table 2, Huh7 cells, luciferase 96 h
[16] = Huh-7, 96 h, read-out: Replicon EC50 (nM) D168V, Table 2, Huh7 cells, luciferase 96 h
[17] = Huh-7, read-out: Replicon EC50 (nM) D168V, Table 4

T3 sequence (Q81495 1033-1214): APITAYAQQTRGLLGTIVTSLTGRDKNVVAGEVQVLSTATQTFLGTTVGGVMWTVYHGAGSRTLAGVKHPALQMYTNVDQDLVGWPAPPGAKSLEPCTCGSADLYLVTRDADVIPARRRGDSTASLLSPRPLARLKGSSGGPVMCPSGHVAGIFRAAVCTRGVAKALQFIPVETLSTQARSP

Row | SMILES | Ki (Fold change) GT1a D168A NS3/4A Protease [1] | Ki ([2]; Table 1) [nM] | Ki ([2]; Table 3) [nM] | Ki ([3]; Table 1) [nM] | Ki ([3]; Table 3) [nM] | EC50 [4, 9] [nM] | EC50 [4, 10] [nM] | Replicon EC50 (Fold change) D168A [4] | EC50 [5, 11] [nM] | EC50 [5, 12] [nM] | Replicon EC50 (Fold change) R155K [5] | EC50 [6, 13] [nM] | EC50 [6, 14] [nM] | Replicon EC50 (Fold change) A156T [6] | EC50 [7, 15] [nM] | EC50 ([7]; Huh-7, Table 4) [nM] | Ki (GT3a NS3/4A protease) [nM] | Ki (Fold change) GT3a NS3/4A Protease (GT3a NS3/4A protease) | EC50 [8, 16] [nM] | EC50 [8, 17] [nM] | other results
1 | CCc1nc2ccc(OC)cc2nc1O[C@@H]1C[C@H]2C(=O)N[C@]3(C(=O)NS(=O)(=O)C4CC4)C[C@H]3/C=C\CCCCC[C@H](NC(=O)OC3CCCC3)C(=O)N2C1 [Compound 22a, Cyclopentyl ((2R,6S,13aS,14aR,16aS,Z)-14a-((cyclopropylsulfonyl)carbamoyl)-2-((3-ethyl-7-methoxyquinoxalin-2-yl)oxy)-5,16-dioxo-1,2,3,5,6,7,8,9,10,11,13a,14,14a,15,16,16a-hexadecahydrocyclopropa[e]pyrrolo[1,2-a][1,4]diazacyclopentadecin-6-yl)carbamate] | (42) fold | 52.3 | 52.3 ± 3.2 | 1.24 | 1.24 | 3.6 | 3.6 | (26) fold | 2.08 | 2.08 | (15) fold | 11.8 | 11.8 | (84) fold | 0.14 | 0.14 | 211 | (170) fold | 11.9 | 11.9 | Replicon EC50 (Fold change) D168V [8]: (85) fold
2 | COc1ccc2nc(C)c(O[C@@H]3C[C@H]4C(=O)N[C@]5(C(=O)NS(=O)(=O)C6CC6)C[C@H]5/C=C\CCCCC[C@H](NC(=O)OC5CCCC5)C(=O)N4C3)nc2c1 [Compound 22b, Cyclopentyl ((2R,6S,13aS,14aR,16aS,Z)-14a-((cyclopropylsulfonyl)carbamoyl)-2-((7-methoxy-3-methylquinoxalin-2-yl)oxy)-5,16-dioxo-1,2,3,5,6,7,8,9,10,11,13a,14,14a,15,16,16a-hexadecahydrocyclopropa[e]pyrrolo[1,2-a][1,4]diazacyclopentadecin-6-yl)carbamate] | (34) fold | 31.9 | 31.9 ± 2.5 | 0.93 | 0.93 | 2.63 | 2.63 | (24) fold | 0.89 | 0.89 | (8) fold | 2.88 | 2.88 | (26) fold | 0.11 | 0.11 | 147 | (158) fold | 4.32 | 4.32 | Replicon EC50 (Fold change) D168V [8]: (39) fold
3 | COc1ccc2nc(Cl)c(O[C@@H]3C[C@H]4C(=O)N[C@]5(C(=O)NS(=O)(=O)C6CC6)C[C@H]5/C=C\CCCCC[C@H](NC(=O)OC5CCCC5)C(=O)N4C3)nc2c1 [Compound 22c, Cyclopentyl ((2R,6S,13aS,14aR,16aS,Z)-2-((3-chloro-7-methoxyquinoxalin-2-yl)oxy)-14a-((cyclopropylsulfonyl)carbamoyl)-5,16-dioxo-1,2,3,5,6,7,8,9,10,11,13a,14,14a,15,16,16a-hexadecahydrocyclopropa[e]pyrrolo[1,2-a][1,4]diazacyclopentadecin-6-yl)carbamate] | (62) fold | 30.6 | 30.6 ± 2.6 | 0.49 | 0.49 | 1.32 | 1.32 | (9) fold | 0.59 | 0.59 | (4) fold | 3.55 | 3.55 | (24) fold | 0.15 | 0.15 | 85.6 | (175) fold | 1.55 | 1.55 | Replicon EC50 (Fold change) D168V [8]: (10) fold
4 | COc1ccc2nc(C(F)(F)F)c(O[C@@H]3C[C@H]4C(=O)N[C@]5(C(=O)NS(=O)(=O)C6CC6)C[C@H]5/C=C\CCCCC[C@H](NC(=O)OC5CCCC5)C(=O)N4C3)nc2c1 [Compound 22d, Cyclopentyl ((2R,6S,13aS,14aR,16aS,Z)-14a-((cyclopropylsulfonyl)carbamoyl)-2-((7-methoxy-3-(trifluoromethyl)quinoxalin-2-yl)oxy)-5,16-dioxo-1,2,3,5,6,7,8,9,10,11,13a,14,14a,15,16,16a-hexadecahydrocyclopropa[e]pyrrolo[1,2-a][1,4]diazacyclopentadecin-6-yl)carbamate] | (15) fold | 115 | 115 ± 12 | 7.55 | 7.55 | 15.1 | 15.1 | (3) fold | 7.97 | 7.97 | (2) fold | 117 | 117 | (24) fold | 4.86 | 4.86 | 757 | (100) fold | 24 | 24 | Replicon EC50 (Fold change) D168V [8]: (5) fold
